The text below walks through data of US5318993A, “Antihyperlipidemic benzoquinones” (Bristol-Myers Squibb Company, priority 1993, dated 1994).

Data set [1] can be described thus: In vivo hypocholesterolemic activity in normocholesterolemic chickens (serum lipid parameters). As to conditions: for response vs control in vivo at 4 mg/kg/day: Gallus gallus, po, 672 h. As to the method:
(§1) Hypocholesterolemic activity was evaluated for the synthetic analogues using γ-tocotrienol as a control in normocholesterolemic chickens. Newborn male chicks (6-10 for each group) were raised on a standard corn-soybean-based control diet for two weeks and then were switched to either control or experimental diets for four weeks. Drug treatment consisted of the addition of test compound to the corn-soybean-based. At the end of the feeding period, all the birds were fasted (about 36 hours) and refed (about 48 hours) to induce cholesterolgenic enzymes prior to sacrifice. The specific activity of HMG-CoA reductase, total serum cholesterol levels, HDL/LDL cholesterol pools, and triglyceride levels (data not shown) were examined (Table II).
(§2) Effects of BMS Compounds on Lipid Parameters in Male
(§3) Orally dosed for 4-weeks at 4 mg/kg/day

For the next data set, the system named is LDL. As to conditions: in words; cited from earlier work.
Another data set has as its system HepG2 cells. In words: Cholesterol synthesis in HepG2 cell culture model (14C-acetate incorporation). In kind it is cell-based, human. As to conditions: for activity at 10 µM: Homo sapiens, HepG2 cells, 4 hours incubation, read-out: Cholesterol Biosynthesis. As to the method: (§4) The human hepatoma HepG2 cell culture model was employed to compare the intrinsic activities of the synthetic analogues relative to the tocotrienols. HepG2 cells were incubated with the indicated compounds for 4 hours at 10 μM. Cholesterol synthesis was assayed by ^14 C-acetate incorporation over the final hour of incubation, and HMG-CoA reductase suppression (specific activity) was assayed in the microsomal fraction isolated from parallel cultures at the end of the 4 hour incubation.

For data set [2], the target named is T1, HMG-CoA reductase (Homo sapiens, UniProt P04035).
T1 construct: assayed in the microsomal fraction isolated from parallel cultures; endogenous in cells; host or cells: HepG2 (human hepatoma)
T1 sequence (P04035 1-888): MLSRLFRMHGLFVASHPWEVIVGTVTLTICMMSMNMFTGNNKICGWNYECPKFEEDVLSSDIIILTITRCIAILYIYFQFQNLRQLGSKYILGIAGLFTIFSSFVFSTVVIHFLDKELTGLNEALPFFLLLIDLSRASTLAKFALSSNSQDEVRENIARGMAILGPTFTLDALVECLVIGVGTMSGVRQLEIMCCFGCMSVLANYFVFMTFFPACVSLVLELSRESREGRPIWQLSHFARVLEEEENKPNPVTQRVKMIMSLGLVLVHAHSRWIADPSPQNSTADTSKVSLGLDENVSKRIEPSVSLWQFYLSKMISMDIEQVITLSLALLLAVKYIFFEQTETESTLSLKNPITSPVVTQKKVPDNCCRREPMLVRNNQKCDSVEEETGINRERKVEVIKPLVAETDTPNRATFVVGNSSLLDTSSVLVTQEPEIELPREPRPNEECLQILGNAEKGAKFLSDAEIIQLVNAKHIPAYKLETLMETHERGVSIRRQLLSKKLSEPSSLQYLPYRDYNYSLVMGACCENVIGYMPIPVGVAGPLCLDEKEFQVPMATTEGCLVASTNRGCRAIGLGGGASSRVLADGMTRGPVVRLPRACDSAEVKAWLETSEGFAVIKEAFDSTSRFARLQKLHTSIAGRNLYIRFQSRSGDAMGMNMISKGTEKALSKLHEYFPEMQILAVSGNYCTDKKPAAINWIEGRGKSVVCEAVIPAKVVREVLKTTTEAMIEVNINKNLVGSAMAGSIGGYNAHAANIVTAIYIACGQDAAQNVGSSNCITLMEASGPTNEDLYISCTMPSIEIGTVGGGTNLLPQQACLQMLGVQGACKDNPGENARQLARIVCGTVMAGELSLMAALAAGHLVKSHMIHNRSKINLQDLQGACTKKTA
In words: HMG-CoA reductase suppression (specific activity, microsomal fraction of HepG2 cells). It is filed as cell-based. As to conditions: 4 hours incubation, read-out: HMGR Suppression. As to the method: as §4

Data set [3] has as its system HMG-CoA reductase. In words: HMG-CoA reductase specific activity in normocholesterolemic chickens. In kind it is in vivo. As to conditions: male chickens, orally dosed for 4 weeks at 4 mg/kg/day. As to the method:
as §1, §2, §3

The conditions of data set [4]: man, cited from earlier work.
For data set [5], the system named is submitochondrial particles. As to conditions: in words; cited from earlier work.
Data set [6] relates to rat liver microsomes and mitochondrial membranes. As to conditions: in words; cited from earlier work.
Where [7] appears, read: male chickens, orally dosed for 4 weeks at 4 mg/kg/day, read-out: HDL-C.
The mark [8] stands for this setting: male chickens, orally dosed for 4 weeks at 4 mg/kg/day, read-out: LDL-C.
The mark [9] stands for this setting: male chickens, orally dosed for 4 weeks at 4 mg/kg/day, total serum cholesterol, read-out: Tot.-C.

Where two headings read alike, the source gives them in different places.

`CC(C)=CCC/C(C)=C/CC/C(C)=C/CC/C(C)=C/CC1=C(C)C(=O)c2ccccc2C1=O` [Vitamin K2, reference compound]: the response vs control in vivo at 4 mg/kg/day came out at 105% in data set [1] (setting [7]), 146% in data set [1] (setting [8]) and 116% in data set [1] (setting [9]). For the same molecule, in data set [1] (in words, Vitamin K2 (n=4), refers to Table II), the “cholesterol levels in vivo” value is “appears to actually elevate cholesterol levels”.
With `COc1c(O)c(C)c(C/C=C(\C)CC/C=C(\C)CC/C=C(\C)CC/C=C(\C)CC/C=C(\C)CC/C=C(\C)CC/C=C(\C)CC/C=C(\C)CC/C=C(\C)CCC=C(C)C)c(O)c1OC` [ubiquinol-10], in the data set on LDL, the LDL oxidation inhibition entry is recorded as “inhibitor of LDL oxidation” and the “LDL oxidation inhibition efficiency relative to tocopherol” value is given as “much more efficient than tocopherol”.
As for `CC(C)=CCC/C(C)=C/CC/C(C)=C/CC[C@]1(C)CCc2cc(O)c(C)c(C)c2O1` [γ-Tocotrienol, reference compound], the activity at 10 µM with HepG2 cells is 29%; on HMG-CoA reductase [2], 65%. The response vs control in vivo at 4 mg/kg/day in data set [1] (read-out: HDL-C) came to 87%; in data set [1] (read-out: LDL-C), 54.8%; in data set [1] (read-out: Tot.-C), 76.3%.
Turning to `CC(C)=CCC/C(C)=C/CC/C(C)=C/CCC(O)CCC1=CC(=O)C=CC1=O` (stereo not drawn) [Example 11, 2-(3-Hydroxy-7,11,15-Trimethyl-6(E),10(E),14-Hexadecatrienyl)-2,5-Cyclohexadiene-1,4-Dione], in the data set with HepG2 cells, the activity at 10 µM worked out at 75%. Also, the response vs control in vivo at 4 mg/kg/day in data set [1] (setting [7]) was determined as 96.9%; in data set [1] (setting [8]) it was 80.1%; in data set [1] (setting [9]), 87.2%.
Taken in the same sequence, the figures for `CC(C)=CCC/C(C)=C/CC/C(C)=C/CCC(C)(O)CCC1=CC(=O)c2ccccc2C1=O` (stereo not drawn) [Example 14, 2-(3-Hydroxy-3,7,11,15-Tetramethyl-6(E),10(E),14-Hexadecatrienyl)-1,4-Naphthalene-1,4-dione] were 10%, 94.7%, 69.4% and 82.4%.
For `CC(C)=CCC/C(C)=C/CC/C(C)=C/CCC(C)(O)CCC1=CC(=O)C(C)=C(C)C1=O` (stereo not drawn) [Example 15, 5-(3-Hydroxy-3,7,11,15-Tetramethyl-6(E),10(E),14-Hexadecatrienyl)-2,3-Dimethyl-2,5-cyclohexadiene-1,4-Dione], the figures for the activity at 10 µM in the data set with HepG2 cells and at HMG-CoA reductase [2] were 89% and 79%, respectively. For the same molecule, the “activity in the cholesterol suppression assay in vitro” value with HepG2 cells (in words) was “very active in the cholesterol suppression assay in vitro”. Moreover, the “cholesterol/HMGR suppression in vitro, relative to γ-tocotrienol” value in the data set on HepG2 cells (in words, refers to Table I) was “very similar cholesterol/HMGR suppression in vitro and in vivo”. Moreover, the HMGR with HMG-CoA reductase [3] was 67.4 % of Control. In addition, the response vs control in vivo at 4 mg/kg/day in data set [1] (setting [7]) was determined as 90.5%; in data set [1] (setting [8]), 59%; in data set [1] (setting [9]), 76.7%. Moreover, the “activity in the chick model, relative to γ-tocotrienol” value in data set [1] (in words) is “comparable activity to γ-tocotrienol in the chick model”. The “cholesterol/HMGR suppression in vivo, relative to γ-tocotrienol” value in data set [1] (in words, refers to Table II) was “very similar cholesterol/HMGR suppression in vitro and in vivo”.
Turning to `CC(C)=CCC/C(C)=C/CC/C(C)=C/CCC(O)CCC1=CC(=O)C(C)=C(C)C1=O` (stereo not drawn) [Example 12, 5-(3-Hydroxy-7,11,15-Trimethyl-6(E),10(E),14-Hexadecatrienyl)-2,3-Dimethyl-2,5-Cyclohexadiene-1,4-Dione], the activity at 10 µM in the data set with HepG2 cells is 3%; on HMG-CoA reductase [2] it was 74%. In addition, the response vs control in vivo at 4 mg/kg/day in data set [1] (setting [7]) was 95%; in data set [1] (setting [8]), 73%; in data set [1] (setting [9]) it was 82.7%.
In the case of `CC(C)=CCC/C(C)=C/CC/C(C)=C/CC1=CC(=O)C=CC1=O` [Example 10, 2-(3,7,11-Trimethyl-2(E),6(E),10-Dodecatrienyl)-2,5-Cyclohexadiene-4-Dione], in the data set with HepG2 cells, the activity at 10 µM stood at 95%.
As to `COC1=C(OC)C(=O)C(CCCCCCCCCCO)=C(C)C1=O` [Idebenone], in data set [4] (in words), the absorption rate entry was “absorbed rapidly” and the intestinal absorption result is “low intestinal absorption”. Further, the bioavailability in data set [4] (low intestinal absorption) is 15-30%.
For the molecule `CC1=C(C)C(=O)C(CCC(C)(O)CC/C=C(\C)CCc2cccc(C(F)(F)F)c2)=CC1=O` (stereo not drawn) [Example 13, 5-(3,7-Dimethyl-3-Hydroxy-9-[3-(Trifluoromethyl)phenyl]-6(E)-Nonenyl)-2,3-Dimethyl-2,5-cyclohexadiene-1,4-Dione], the HMGR with HMG-CoA reductase [3] is 59.9 % of Control. Also, the response vs control in vivo at 4 mg/kg/day in data set [1] (setting [7]) was determined as 75.6%; in data set [1] (setting [8]), 32%; in data set [1] (setting [9]), 57.7%.
With `CC(C)=CCC/C(C)=C/CC/C(C)=C/CCC(C)(O)CCC1=CC(=O)C=CC1=O` (stereo not drawn) [Example 16, 2-(3-Hydroxy-3,7,11,15-Tetramethyl-6(E),10(E),14-Hexadecatrienyl)-2,5-cyclohexadiene-1,4-Dione Hydrate], the activity at 10 µM in the data set with HepG2 cells came to 74%. For the same molecule, the response vs control in vivo at 4 mg/kg/day in data set [1] (setting [7]) was found to be 95.8%; in data set [1] (setting [8]), 94.9%; in data set [1] (setting [9]) it was 93.8%.
Take `COc1c(O)c(C)c(C/C=C(\C)CC/C=C(\C)CC/C=C(\C)CC/C=C(\C)CC/C=C(\C)CC/C=C(\C)CC/C=C(\C)CC/C=C(\C)CC/C=C(\C)CCC=C(C)C)c(O)c1OC` [Ubiquinol]: the lipid peroxidation inhibition entry in data set [5] is given as “inhibits lipid peroxidation”.
In the case of `COC1=C(OC)C(=O)C(C/C=C(\C)CC/C=C(\C)CC/C=C(\C)CC/C=C(\C)CC/C=C(\C)CC/C=C(\C)CC/C=C(\C)CC/C=C(\C)CC/C=C(\C)CCC=C(C)C)=C(C)C1=O` [ubiquinone], the effect on tocopherol result in data set [6] is listed as “sparing effect on tocopherol”.
